This series has as its system CCRIS mutagenicity, Ames/micronucleus/aberration tests. Put plainly: CCRIS mutagenicity studies. From the text: The CCRIS database contains chemical records with carcinogenicity, mutagenicity, tumor promotion, and tumor inhibition test results. It was developed by the National Cancer Institute (NCI). Data are derived from studies cited in primary journals, current awareness tools, NCI reports, and other sources. Test results have been reviewed by experts in carcinogenesis and mutagenesis.
CCRIS provides historical information from the years 1985 - 2011. It is no longer updated.
This is an archive assay for CCRIS mutagenicity studies.

The mark [1] stands for this setting: Test System: AMES SALMONELLA TYPHIMURIUM, Strain/Indicator: TA98, Metabolic Activation: NONE, Method: STANDARD PLATE.
The mark [2] stands for this setting: Test System: AMES SALMONELLA TYPHIMURIUM, Strain/Indicator: TA100, Metabolic Activation: NONE, Method: STANDARD PLATE.
Where [3] appears, read: Test System: AMES SALMONELLA TYPHIMURIUM, Strain/Indicator: TA1535, Metabolic Activation: NONE, Method: STANDARD PLATE.
[4] abbreviates: Test System: AMES SALMONELLA TYPHIMURIUM, Strain/Indicator: TA1537, Metabolic Activation: NONE, Method: STANDARD PLATE.
Setting [5] is: Test System: AMES SALMONELLA TYPHIMURIUM, Strain/Indicator: TA1536, Metabolic Activation: NONE, Method: STANDARD PLATE.
[6] abbreviates: Test System: AMES SALMONELLA TYPHIMURIUM, Strain/Indicator: TA1538, Metabolic Activation: NONE, Method: STANDARD PLATE.

The source made the active and inactive calls. No rule for the calls is given here.

Take `CCCCCON=O`: the mutagenic call by setting is: (Test System: AMES SALMONELLA TYPHIMURIUM, Strain/Indicator: TA98, Metabolic Activation: HAMSTER, LIVER, S-9, AROCLOR 1254, Method: STANDARD PLATE) “inactive; negative”; under setting [1], “inactive; negative”; (Test System: AMES SALMONELLA TYPHIMURIUM, Strain/Indicator: TA98, Metabolic Activation: RAT, LIVER, S-9, AROCLOR 1254, Method: STANDARD PLATE) “inactive; negative”; (Test System: AMES SALMONELLA TYPHIMURIUM, Strain/Indicator: TA100, Metabolic Activation: HAMSTER, LIVER, S-9, AROCLOR 1254, Method: STANDARD PLATE) “active; positive”; under setting [2], “active; positive”; (Test System: AMES SALMONELLA TYPHIMURIUM, Strain/Indicator: TA100, Metabolic Activation: RAT, LIVER, S-9, AROCLOR 1254, Method: STANDARD PLATE) “inactive; negative”. Further, the mutagenic call was “active; positive” (Test System: AMES SALMONELLA TYPHIMURIUM, Strain/Indicator: TA1535, Metabolic Activation: HAMSTER, LIVER, S-9, AROCLOR 1254, Method: STANDARD PLATE); “active; positive” under setting [3]; “active; positive” (Test System: AMES SALMONELLA TYPHIMURIUM, Strain/Indicator: TA1535, Metabolic Activation: RAT, LIVER, S-9, AROCLOR 1254, Method: STANDARD PLATE); “inactive; negative” (Test System: AMES SALMONELLA TYPHIMURIUM, Strain/Indicator: TA1537, Metabolic Activation: HAMSTER, LIVER, S-9, AROCLOR 1254, Method: STANDARD PLATE); “inactive; negative” under setting [4]; “inactive; negative” (Test System: AMES SALMONELLA TYPHIMURIUM, Strain/Indicator: TA1537, Metabolic Activation: RAT, LIVER, S-9, AROCLOR 1254, Method: STANDARD PLATE). For the same compound, the mutagenic call is, setting by setting: (Test System: MOUSE LYMPHOMA, Strain/Indicator: L5178Y (TK+/TK-), Metabolic Activation: NONE, Method: SUSPENSION/PLATE) “inactive; negative. reevaluation of results: inconclusive/negative”; (Test System: MOUSE LYMPHOMA, Strain/Indicator: L5178Y (TK+/TK-), Metabolic Activation: RAT, LIVER, S-9, AROCLOR 1254, Method: SUSPENSION/PLATE) “inactive; negative. reevaluation of results: negative”.
For `BrCC1CO1` (configuration not stated), the mutagenic call was “active; positive” (Test System: AMES SALMONELLA TYPHIMURIUM, Strain/Indicator: TA100, Metabolic Activation: HAMSTER, LIVER, S-9, AROCLOR 1254 (10%), Method: PREINCUBATION); “active; positive” (Test System: AMES SALMONELLA TYPHIMURIUM, Strain/Indicator: TA100, Metabolic Activation: NONE, Method: PREINCUBATION); “active; positive” (Test System: AMES SALMONELLA TYPHIMURIUM, Strain/Indicator: TA100, Metabolic Activation: RAT, LIVER, S-9, AROCLOR 1254 (10%), Method: PREINCUBATION); “active; positive” (Test System: AMES SALMONELLA TYPHIMURIUM, Strain/Indicator: TA1535, Metabolic Activation: HAMSTER, LIVER, S-9, AROCLOR 1254 (10%), Method: PREINCUBATION); “active; positive” (Test System: AMES SALMONELLA TYPHIMURIUM, Strain/Indicator: TA1535, Metabolic Activation: NONE, Method: PREINCUBATION); “active; positive” (Test System: AMES SALMONELLA TYPHIMURIUM, Strain/Indicator: TA1535, Metabolic Activation: RAT, LIVER, S-9, AROCLOR 1254 (10%), Method: PREINCUBATION).
In the case of `CN1CCN(c2c(F)cc3c(=O)c(C(=O)O)cn4c3c2OCN4C)CC1`, the mutagenic call was “active; positive” (Test System: AMES SALMONELLA TYPHIMURIUM, Strain/Indicator: TA102, Metabolic Activation: NONE, Method: STANDARD PLATE) and “active; positive” (Test System: CHINESE HAMSTER V-79, Strain/Indicator: V-79 (HPRT)/6-THIOGUANINE, Metabolic Activation: RAT, LIVER, S-9, AROCLOR 1254).
As for `CCN(CCCl)CCCNc1c2ccccc2nc2c1ccc1ccccc12`, the mutagenic call is “active; positive” under setting [1]; “active; positive” under setting [2]; “inactive; negative” under setting [3]; “active; positive” under setting [5]; “active; positive” under setting [4]; “active; positive” under setting [6]. Besides, the mutagenic call (Test System: CHO/HGPRT, Strain/Indicator: CHO-K1-BH4, Metabolic Activation: NONE, Method: STANDARD PLATE) is “active; positive”.
On to `CCCCOc1ccc2nc3cc(Cl)ccc3c(NCCCNCCCl)c2n1`, for which the mutagenic call is, setting by setting: under setting [1], “active; positive”; under setting [2], “inactive; negative”; under setting [3], “inactive; negative”; under setting [5], “active; positive”; under setting [4], “active; positive”; under setting [6], “active; positive”.
Take `COc1ccc2c(c1)[C@H]1CCCC[C@@H]1[C@@H]1O[C@H]21`: the mutagenic call was “inactive; negative” under setting [1] and “inactive; negative” under setting [2].

For the origin of these results see PubChem BioAssay AID1259407 (Chemical Carcinogenesis Research Information System (CCRIS), 2018).
